In the CheMixHub viscosity set:

Test: xn = mol fraction of the nth substance listed

C1COCO1 + C1CCCCC1
viscosity [mPa·s], 101.3 kPa
Details	x2 = 0.0994	x2 = 0.1978	x2 = 0.3014	x2 = 0.3991	x2 = 0.4961	x2 = 0.5974	x2 = 0.6998	x2 = 0.8012	x2 = 0.8994
298.15 K	0.5886	0.593	0.6047	0.6199	0.6405	0.6642	0.6971	0.7404	0.8026
313.15 K	0.4948	0.4959	0.5024	0.5119	0.5256	0.5441	0.5653	0.5967	0.6392

CCCCCCCCC + C1CCCCC1
viscosity [mPa·s], 101.33 kPa
Details	298.15 K	303.15 K	308.15 K
x2 = 0.106	0.658	0.617	0.576
x2 = 0.1286	0.6708	–	–
x2 = 0.1999	0.664	0.623	0.582
x2 = 0.2414	0.6821	–	–
x2 = 0.2987	0.672	0.632	0.589
x2 = 0.342	0.686	–	–
x2 = 0.3971	0.677	0.633	0.591
x2 = 0.4371	0.7041	–	–
x2 = 0.4952	0.696	0.648	0.602
x2 = 0.5293	0.7089	–	–
x2 = 0.5978	0.708	0.659	0.616
x2 = 0.6059	0.7214	–	–
x2 = 0.683	0.7381	–	–
x2 = 0.6994	0.73	0.679	0.631
x2 = 0.7423	0.7545	–	–
x2 = 0.7989	0.762	0.706	0.658
x2 = 0.8068	0.7761	–	–
x2 = 0.873	0.8053	–	–
x2 = 0.8991	0.805	0.743	0.687
x2 = 0.9395	0.8376	–	–
x2 = 0.9769	0.881	–	–

Cc1cccc(C)n1 + C1CCCCC1
viscosity [mPa·s], 101 kPa
Details	x1 = 0.104	x1 = 0.198	x1 = 0.306	x1 = 0.4003	x1 = 0.503	x1 = 0.6001	x1 = 0.705	x1 = 0.799	x1 = 0.898
303 K	0.727	0.6904	0.67	0.6636	0.6619	0.6624	0.6771	0.6933	0.7297
313 K	0.6341	0.6026	0.5879	0.58	0.5789	0.5888	0.601	0.615	0.6426
323 K	0.5572	0.5372	0.5288	0.5212	0.5181	0.5208	0.5361	0.5491	0.5758

O=S(Cl)Cl + C1CCCCC1
298.15 K, 101 kPa
Details	viscosity [mPa·s]
x1 = 0.272	0.7201
x1 = 0.466	0.6634
x1 = 0.806	0.6183
x1 = 0.937	0.6156

C1COCO1 + C1CCOC1
298.15 K, 101 kPa
Details	viscosity [mPa·s]
x2 = 0.1025	0.5975
x2 = 0.2043	0.5993
x2 = 0.3057	0.5923
x2 = 0.4065	0.5804
x2 = 0.5067	0.5634
x2 = 0.6065	0.5438
x2 = 0.7056	0.5224
x2 = 0.8043	0.501
x2 = 0.9024	0.4802

ClC(Cl)C(Cl)(Cl)Cl + C1COCCO1
303.15 K, 101 kPa
Details	viscosity [mPa·s]
x2 = 0.0967	2.052
x2 = 0.1938	2.133
x2 = 0.2925	2.141
x2 = 0.3925	2.108
x2 = 0.4926	2.011
x2 = 0.5951	1.851
x2 = 0.6928	1.65
x2 = 0.795	1.463
x2 = 0.8962	1.289

COCOC + C1C[C@@H]2[C@H]3CC[C@H](C3)[C@@H]2C1
viscosity [mPa·s], 100 kPa
Details	x1 = 0.1048	x1 = 0.2024	x1 = 0.3042	x1 = 0.4061	x1 = 0.5027	x1 = 0.5936	x1 = 0.7008	x1 = 0.8058	x1 = 0.9096
293.15 K	2.257	1.767	1.398	1.122	0.901	0.749	0.616	–	0.428
298.15 K	2.053	1.606	1.295	1.043	0.845	0.704	0.586	0.45	0.408
303.15 K	1.903	1.483	1.202	0.964	0.797	0.664	0.558	0.433	0.393
308.15 K	1.746	1.408	1.12	0.908	0.737	0.628	0.531	0.421	0.38
313.15 K	1.615	1.3	1.047	0.846	0.716	0.594	0.507	0.402	0.368

CCCCCCCCC + CC1CCCCC1
viscosity [mPa·s], 101 kPa
Details	293.15 K	298.15 K	303.15 K	308.15 K
x2 = 0.0426	0.7162	0.6637	0.6214	–
x2 = 0.1052	–	0.664	0.625	0.585
x2 = 0.1496	0.7103	0.6606	0.6176	–
x2 = 0.198	–	0.66	0.614	0.58
x2 = 0.2805	0.7065	0.6594	0.6151	–
x2 = 0.299	–	0.658	0.616	0.578
x2 = 0.3606	0.7056	0.66	0.6148	–
x2 = 0.4018	–	0.659	0.616	0.577
x2 = 0.4418	0.707	0.6607	0.6168	–
x2 = 0.4978	–	0.659	0.617	0.577
x2 = 0.5953	0.7117	0.6639	0.6225	–
x2 = 0.5982	–	0.661	0.62	0.578
x2 = 0.6794	0.7158	0.6669	0.6292	–
x2 = 0.6991	–	0.662	0.618	0.58
x2 = 0.7579	0.7196	0.6709	0.6339	–
x2 = 0.7995	–	0.665	0.62	0.582
x2 = 0.8388	0.7243	0.6757	0.6383	–
x2 = 0.9012	–	0.671	0.626	0.587
x2 = 0.9078	0.7296	0.6788	0.6428	–

C1COCO1 + CC#N
viscosity [mPa·s], 101 kPa
Details	x2 = 0.167	x2 = 0.3109	x2 = 0.4361	x2 = 0.5461	x2 = 0.6435	x2 = 0.7302	x2 = 0.8081	x2 = 0.8783	x2 = 0.942
298.15 K	0.5233	0.4737	0.436	0.4046	0.3783	0.3591	0.3444	0.338	0.3366
308.15 K	0.4618	0.4235	0.3913	0.3646	0.3419	0.3251	0.3134	0.3077	0.307
318.15 K	0.4132	0.3791	0.3502	0.3263	0.3065	0.291	0.2817	0.278	0.2797

CC(=O)c1ccccc1 + CC#N
308.15 K, 101 kPa
Details	viscosity [mPa·s]
x1 = 0.048	0.34
x1 = 0.1023	0.3845
x1 = 0.1626	0.4361
x1 = 0.2321	0.4959
x1 = 0.3113	0.5746
x1 = 0.4024	0.6736
x1 = 0.5125	0.8002
x1 = 0.6426	0.9514
x1 = 0.8018	1.144
x1 = 0.9135	1.284

C1COCO1 + CC(=O)O
298.15 K, 101 kPa
Details	viscosity [mPa·s]
x1 = 0.0826	1.097
x1 = 0.1685	1.076
x1 = 0.2578	1.042
x1 = 0.3508	0.996
x1 = 0.4477	0.9442
x1 = 0.5487	0.883
x1 = 0.6541	0.8162
x1 = 0.7643	0.7415
x1 = 0.8795	0.6626

CC(=O)c1ccccc1 + CC(=O)O
298.15 K, 101 kPa
Details	viscosity [mPa·s]
x2 = 0.0998	1.741
x2 = 0.2107	1.754
x2 = 0.2935	1.742
x2 = 0.4253	1.703
x2 = 0.4885	1.668
x2 = 0.6003	1.598
x2 = 0.6998	1.524
x2 = 0.8002	1.42
x2 = 0.9013	1.293

ClC(Cl)C(Cl)(Cl)Cl + CC(=O)c1ccccc1
298.15 K, 101 kPa
Details	viscosity [mPa·s]
x2 = 0.1163	2.34
x2 = 0.3295	2.36
x2 = 0.5338	2.26
x2 = 0.7313	2.03
x2 = 0.8974	1.8

C1COCO1 + CC(C)(C)O
303.15 K, 101 kPa
Details	viscosity [mPa·s]
x1 = 0.1001	1.967
x1 = 0.2001	1.468
x1 = 0.3001	1.102
x1 = 0.4001	0.8793
x1 = 0.5001	0.7657
x1 = 0.6001	0.6755
x1 = 0.7001	0.6067
x1 = 0.8001	0.5731
x1 = 0.9001	0.566

CC(=O)c1ccccc1 + CC(C)(C)O
viscosity [mPa·s], 101 kPa
Details	x2 = 0.1188	x2 = 0.2314	x2 = 0.3395	x2 = 0.4286	x2 = 0.545	x2 = 0.6429	x2 = 0.7373	x2 = 0.8283	x2 = 0.9142
298.15 K	2.081	2.456	2.8	3.08	3.42	3.651	3.856	4.034	4.208
303.15 K	1.794	2.055	2.284	2.473	2.712	2.874	3.004	3.127	3.247
308.15 K	1.573	1.743	1.895	2.023	2.185	2.29	2.378	2.468	2.549

CN(C)P(=O)(N(C)C)N(C)C + CC(C)(C)O
303.15 K, 101.3 kPa
Details	viscosity [mPa·s]
x1 = 0.0784	3.704
x1 = 0.103	3.722
x1 = 0.1988	3.624
x1 = 0.2201	3.547
x1 = 0.3076	3.4
x1 = 0.4051	3.263
x1 = 0.4476	3.23
x1 = 0.5093	3.185
x1 = 0.6062	3.118
x1 = 0.7077	3.068
x1 = 0.8008	3.02
x1 = 0.9029	2.973
